Assay results from patent US20170334899A1, “AMINO-SUBSTITUTED ISOTHIAZOLES” (Bayer Pharma Aktiengesellschaft, priority 2014, published 2017).

Each compound was assayed on HeLa (assay: Proliferation assay (crystal violet), HeLa). Settings: Homo sapiens, HeLa, 96 h, HeLa cells; 4 days incubation; crystal violet staining; read-out: IC50 inhibition of proliferation, HeLa.
Type: cell-based
Method in brief: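 Four-day compound exposure (0.001-10 μM, 0.5% DMSO final) began 24 h after seeding 1000-5000 cells/well in medium with 10% fetal calf serum. Cell number read by crystal violet absorbance at 595 nm, scaled between day-zero plate and untreated control; 4-parameter fit gave IC50.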

Row | SMILES | IC50 [nM]
1 | Cc1nsc(Nc2cnc(C(F)(F)F)cn2)c1C(=O)Nc1ccc(OCCCN(C)CC(F)(F)F)nc1 [Example 354, 3-methyl-N-(6-{3-[methyl(2,2,2-trifluoroethyl)amino]propoxy}pyridin-3-yl)-5-{[5-(trifluoromethyl)pyrazin-2-yl]amino}-1,2-thiazole-4-carboxamide] | 330
2 | Cc1nsc(Nc2cnc(C(F)(F)F)cn2)c1C(=O)Nc1ccc(F)c(OCC2CCCN(CCF)C2)c1 (stereo not shown) [Example 336, N-(4-fluoro-3-{[1-(2-fluoroethyl)piperidin-3-yl]methoxy}phenyl)-3-methyl-5-{[5-(trifluoromethyl)pyrazin-2-yl]amino}-1,2-thiazole-4-carboxamide] | 390
3 | Cc1nsc(Nc2cnc(C(F)(F)F)cn2)c1C(=O)Nc1ccc(OCCCN(C)CCF)nc1 [Example 352, N-(6-{3-[(2-fluoroethyl)(methyl)amino]propoxy}pyridin-3-yl)-3-methyl-5-{[5-(trifluoromethyl)pyrazin-2-yl]amino}-1,2-thiazole-4-carboxamide] | 1100
4 | Cc1nsc(Nc2cnc(C(F)(F)F)cn2)c1C(=O)Nc1ccc(OC2CCCN(CC(F)F)C2)nc1 (stereo not shown) [Example 330, N-(6-{[1-(2,2-difluoroethyl)piperidin-3-yl]oxy}pyridin-3-yl)-3-methyl-5-{[5-(trifluoromethyl)pyrazin-2-yl]amino}-1,2-thiazole-4-carboxamide] | 1200
5 | Cc1nsc(Nc2ccc(C#N)cn2)c1C(=O)Nc1ccc(OC2CCNCC2)nc1 [Example 28, 5-[(5-Cyanopyridin-2-yl)amino]-3-methyl-N-[6-(piperidin-4-yloxy)pyridin-3-yl]-1,2-thiazole-4-carboxannide] | 3700
6 | CCCN1CC[C@H](Oc2ccc(NC(=O)c3c(C)nsc3Nc3cnc(C(F)(F)F)cn3)cn2)[C@@H](F)C1 [Example 370, N-(6-{[(3S,4S)-3-fluoro-1-propylpiperidin-4-yl]oxy}pyridin-3-yl)-3-methyl-5-{[5-(trifluoromethyl)pyrazin-2-yl]amino}-1,2-thiazole-4-carboxamide] | 300
7 | Cc1nsc(Nc2cnc(C(F)(F)F)cn2)c1C(=O)Nc1ccc(OCCN(C)CCC(F)(F)F)nc1 [Example 351, 3-methyl-N-(6-{2-[methyl(3,3,3-trifluoropropyl)amino]ethoxy}pyridin-3-yl)-5-{[5-(trifluoromethyl)pyrazin-2-yl]amino}-1,2-thiazole-4-carboxamide] | 350
8 | Cc1nsc(Nc2cnc(C(F)(F)F)cn2)c1C(=O)Nc1ccc(O[C@H]2CCCN(CC(F)F)C2)nc1 [Example 388, N-(6-{[(3S)-1-(2,2-difluoroethyl)piperidin-3-yl]oxy}pyridin-3-yl)-3-methyl-5-{[5-(trifluoromethyl)pyrazin-2-yl]amino}-1,2-thiazole-4-carboxamide] | 370
9 | Cc1nsc(Nc2cnc(C(F)(F)F)cn2)c1C(=O)Nc1ccc(C2CCN(CC(F)F)CC2)nc1 [Example 357, N-{6-[1-(2,2-difluoroethyl)piperidin-4 yl]pyridin-3-yl}-3-methyl-5-{[5-(trifluoromethyl)pyrazin-2-yl]amino}-1,2-thiazole-4-carboxamide] | 430
10 | Cc1nsc(Nc2ccc(C#N)cn2)c1C(=O)Nc1ccc(OC2CCN(CCF)CC2)nc1 [Example 29, 5-[(5-Cyanopyridin-2-yl)amino]-N-(6-{[1-(2-fluoroethyl)piperidin-4-yl]oxy}pyridin-3-yl)-3-methyl-1,2-thiazole-4-carboxamide] | 10000
11 | CCCN1CC[C@@H](Oc2ccc(NC(=O)c3c(C)nsc3Nc3cnc(C(F)(F)F)cn3)cn2)[C@H](F)C1 [Example 371, N-(6-{[(3R,4R)-3-fluoro-1-propylpiperidin-4-yl]oxy}pyridin-3-yl)-3-methyl-5-{[5-(trifluoromethyl)pyrazin-2-yl]amino}-1,2-thiazole-4-carboxamide] | 320
12 | Cc1nsc(Nc2cnc(C(F)(F)F)cn2)c1C(=O)Nc1ccc(O[C@@H]2CCCN(CC(F)(F)F)C2)nc1 [Example 386, 3-methyl-N-(6-{[(3R)-1-(2,2,2-trifluoroethyl)piperidin-3-yl]oxy}pyridin-3-yl)-5-{[5-(trifluoromethyl)pyrazin-2-yl]amino}-1,2-thiazole-4-carboxamide] | 290
13 | Cc1nsc(Nc2cnc(C(F)(F)F)cn2)c1C(=O)Nc1ccc(N2CCN(CCC(F)(F)F)CC2)cn1 [Example 374, 3-methyl-5-{[5-(trifluoromethyl)pyrazin-2-yl]amino}-N-{5-[4-(3,3,3-trifluoropropyl)piperazin-1-yl]pyridin-2-yl}-1,2-thiazole-4-carboxamide] | 920
14 | Cc1nsc(Nc2cnc(C(F)(F)F)cn2)c1C(=O)Nc1ccc(O[C@H]2CCCN(CCC(F)(F)F)C2)nc1 [Example 390, 3-methyl-5-{[5-(trifluoromethyl)pyrazin-2-yl]amino}-N-(6-{[(3S)-1-(3,3,3-trifluoropropyl)piperidin-3-yl]oxy}pyridin-3-yl)-1,2-thiazole-4-carboxamide] | 320
15 | Cc1nsc(Nc2cnc(C(F)(F)F)cn2)c1C(=O)Nc1ccc(N2CCN(CC(F)(F)F)CC2)nc1 [Example 360, 3-methyl-N-{6-[4-(2,2,2-trifluoroethyl)piperazin-1-yl]pyridin-3-yl}-5-{[5-(trifluoromethyl)pyrazin-2-yl]amino}-1,2-thiazole-4-carboxamide] | 350
16 | Cc1nsc(Nc2cnc(C(F)(F)F)cn2)c1C(=O)Nc1ccc(N2CCN(CC(F)(F)F)CC2)cn1 [Example 373, 3-methyl-N-{5-[4-(2,2,2-trifluoroethyl)piperazin-1-yl]pyridin-2-yl}-5-{[5-(trifluoromethyl)pyrazin-2-yl]amino}-1,2-thiazole-4-carboxamide] | 810
17 | Cc1nsc(Nc2cnc(C(F)(F)F)cn2)c1C(=O)Nc1ccc(O[C@H]2CCN(CC(F)(F)F)C2)nc1 [Example 383, 3-methyl-N-(6-{[(3S)-1-(2,2,2-trifluoroethyl)pyrrolidin-3-yl]oxy}pyridin-3-yl)-5-{[5-(trifluoromethyl)pyrazin-2-yl]amino}-1,2-thiazole-4-carboxamide] | 280
18 | Cc1nsc(Nc2cnc(C(F)(F)F)cn2)c1C(=O)Nc1ccc(O[C@@H]2CCN(CC(F)F)C[C@H]2F)nc1 [Example 366, N-(6-{[(3R,4R)-1-(2,2-difluoroethyl)-3-fluoropiperidin-4-yl]oxy}pyridin-3-yl)-3-methyl-5-{[5-(trifluoromethyl)pyrazin-2-yl]amino}-1,2-thiazole-4-carboxamide] | 300
19 | Cc1nsc(Nc2cnc(C(F)(F)F)cn2)c1C(=O)Nc1ccc(F)c(OC[C@@H]2CCN(CCC(F)(F)F)C2)c1 [Example 340, N-(4-fluoro-3-{[(3R)-1-(3,3,3-trifluoropropyl)pyrrolidin-3-yl]methoxy}phenyl)-3-methyl-5-{[5-(trifluoromethyl)pyrazin-2-yl]amino}-1,2-thiazole-4-carboxamide] | 430
20 | Cc1nsc(Nc2cnc(C(F)(F)F)cn2)c1C(=O)Nc1ccc(N2CCN(CC(F)F)CC2)cn1 [Example 372, N-{5-[4-(2,2-difluoroethyl)piperazin-1-yl]pyridin-2-yl}-3-methyl-5-{[5-(trifluoromethyl)pyrazin-2-yl]amino}-1,2-thiazole-4-carboxamide] | 1500
21 | Cc1nsc(Nc2cnc(C(F)(F)F)cn2)c1C(=O)Nc1ccc(O[C@@H]2CCCN(CCC(F)(F)F)C2)nc1 [Example 387, 3-methyl-5-{[5-(trifluoromethyl)pyrazin-2-yl]amino}-N-(6-{[(3R)-1-(3,3,3-trifluoropropyl)piperidin-3-yl]oxy}pyridin-3-yl)-1,2-thiazole-4-carboxamide] | 400
22 | Cc1nsc(Nc2cnc(C(F)(F)F)cn2)c1C(=O)Nc1ccc(OCC2CCCN(CCF)C2)nc1 (stereo not shown) [Example 325, N-(6-{[1-(2-fluoroethyl)piperidin-3-yl]methoxy}pyridin-3-yl)-3-methyl-5-{[5-(trifluoromethyl)pyrazin-2-yl]amino}-1,2-thiazole-4-carboxamide] | 620
23 | Cc1nsc(Nc2cnc(C(F)(F)F)cn2)c1C(=O)Nc1ccc(OCC2CCN(CCC(F)(F)F)CC2)nc1 [Example 347, 3-methyl-5-{[5-(trifluoromethyl)pyrazin-2-yl]amino}-N-(6-{[1-(3,3,3-trifluoropropyl)piperidin-4-yl]methoxy}pyridin-3-yl)-1,2-thiazole-4-carboxamide] | 390
24 | Cc1nsc(Nc2cnc(C(F)(F)F)cn2)c1C(=O)Nc1ccc(O[C@@H]2CCCN(CC(F)F)C2)nc1 [Example 385, N-(6-{[(3R)-1-(2,2-difluoroethyl)piperidin-3-yl]oxy}pyridin-3-yl)-3-methyl-5-{[5-(trifluoromethyl)pyrazin-2-yl]amino}-1,2-thiazole-4-carboxamide] | 350
25 | Cc1nsc(Nc2cnc(C(F)(F)F)cn2)c1C(=O)Nc1ccc(C2CCN(CC(F)(F)F)CC2)nc1 [Example 358, 3-methyl-N-{6-[1-(2,2,2-trifluoroethyl)piperidin-4-yl]pyridin-3-yl}-5-{[5-(trifluoromethyl)pyrazin-2-yl]amino}-1,2-thiazole-4-carboxamide] | 320
26 | Cc1nsc(Nc2cnc(C(F)(F)F)cn2)c1C(=O)Nc1ccc(OCC2CCCN(CC(F)(F)F)C2)nc1 (stereo not shown) [Example 326, 3-methyl-N-(6-{[1-(2,2,2-trifluoroethyl)piperidin-3-yl]methoxy}pyridin-3-yl)-5-{[5-(trifluoromethyl)pyrazin-2-yl]amino}-1,2-thiazole-4-carboxamide] | 300
27 | Cc1nsc(Nc2cnc(C(F)(F)F)cn2)c1C(=O)Nc1ccc(OCCN(C)CC(F)(F)F)nc1 [Example 350, 3-methyl-N-(6-{2-[methyl(2,2,2-trifluoroethyl)amino]ethoxy}pyridin-3-yl)-5-{[5-(trifluoromethyl)pyrazin-2-yl]amino}-1,2-thiazole-4-carboxamide] | 280
28 | Cc1nsc(Nc2cnc3ccccc3n2)c1C(=O)Nc1ccc(OC2CCCNC2)nc1 (stereo not shown) [Example 32, 3-Methyl-N-[6-(piperidin-3-yloxy)pyridin-3-yl]-5-(quinoxalin-2-ylamino)-1,2-thiazole-4-carboxannide] | 8000
